Results on three compounds are retold here after US20210018504A1, “SHON AS A PROGNOSTIC BIOMARKER FOR CANCER AND AS A PREDICTOR OF RESPONSE TO ENDOCRINE THERAPY” (priority 2012, published 2021).

In one assay the test system is MCF7-SHON cells. Description: Total cell number assays in MCF7-Vec and MCF7-SHON stable cells. In kind it is cell-based, human. As for the experimental part: (§1) FIGS. 12A-C. SHON is an estrogen inducible gene. (A) RT-PCR. MCF-7 cells were cultured for 24 h in RPMI media containing 10% foetal bovine serum (FBS). Prior to 17β-estradiol (E2) treatment, cells were further cultured for 72 h in phenol red-free medium containing 10% charcoal stripped-FBS. Cells were then treated with 10 nM of E2. Total RNAs were isolated from the cells at indicated time points and the expression of SHON mRNA was determined by One-Step RT-PCR kits (Qiagen) with the SHON-specific primer pairs of SHONc5 and SHONc3 (Table 1). β-ACTIN was included as the RNA input control using forward primer: 5′-ATCATATCGCCGCGCTCG-3′ (SEQ ID NO: 9) and reverse primer: 5′-CGCTCGGTGAGGATCTTCA-3′ (SEQ ID NO: 10). The bp sizes of amplified products are shown on the right. (B) MCF7-Vec and MCF7-SHON cells were treated with DMSO vehicle (−) or 10 nM of E2 (+) for 72 h in phenol red-free medium containing 10% charcoal stripped-FBS. The expression of SHON in whole cell lysates was determined by Western blot with the rabbit polyclonal SHONα antibody. Molecular weights of detected protein bands are shown on the right. (C) Total cell number assays. MCF7-Vec and MCF7-SHON stable cells were seeded in phenol-red free RPMI media with 10% charcoal stripped FBS. […] The cell number was determined at the days indicated. […] The cell number was determined at the indicated days. **, P<0.01; ***, P<0.001. […]

For a further assay, the system named is SHON. Description: SHON expression in MCF-7 cells after 17β-estradiol treatment (RT-PCR, Western blot). It counts as cell-based, human. The method, then: as §1
Another assay concerns breast cancer. The following applies: adjuvant therapy for 5 years, cited from earlier work.

In the case of `C[C@]12CC[C@@H]3c4ccc(O)cc4CC[C@H]3[C@@H]1CC[C@@H]2O` [E2, 17β-estradiol], the cell number result in the assay with MCF7-SHON cells (10 nM E2, MCF7-SHON compared with MCF-Vec cells) is “synergistic increase in cell number”. In addition, in the assay on SHON (10 nM E2, MCF-7 cells, RT-PCR), the “SHON mRNA levels” value is on record as “increase in SHON mRNA levels in a time dependent manner”. For the same compound, the SHON protein expression result in the assay on SHON (10 nM E2 for 72 h, MCF7-Vec and MCF7-SHON cells, Western blot) is “increased”.
Consider `C[C@]12CC[C@@H]3c4ccc(O)cc4C[C@@H](CCCCCCCCC[S+]([O-])CCCC(F)(F)C(F)(F)F)[C@H]3[C@@H]1CC[C@@H]2O` (stereo partly drawn) [ICI 182780], for which the SHON-stimulated growth result with MCF7-SHON cells (100 nM ICI, ER+ MCF-7 cells) is “partially attenuated SHON-stimulated growth advantages”.
For `CC/C(=C(\c1ccccc1)c1ccc(OCCN(C)C)cc1)c1ccccc1` [tamoxifen], the “absolute reduction in mortality” value in the assay with breast cancer (at 15 years) is listed as 9.2%. The “reduction in the annual breast cancer death rate” value with breast cancer was 34%.
